Reference: patent US8952024B2, “Herbicidal pyrimidone derivatives” (E I du Pont de Nemours and Company, priority 2009, dated 2015)

Assays:
Assay type in all cases: in vivo
[1] = test system: pigweed (Amaranthus retroflexus); assay: Test A pre-/postemergence plant response
Text: (§1) Seeds of barnyardgrass (Echinochloa crus-galli), large crabgrass (Digitaria sanguinalis), giant foxtail (Setaria faberii), morningglory (Ipomoea spp.), pigweed (Amaranthus retroflexus), velvetleaf (Abutilon theophrasti), wheat (Triticum aestivum) and corn (Zea mays) were planted into a blend of loam soil and sand and treated preemergence with a directed soil spray using test chemicals formulated in a non-phytotoxic solvent mixture which included a surfactant. At the same time these species were also treated with postemergence applications of test compounds formulated in the same manner.
(§2) Plants ranged in height from two to ten cm and were in the one- to two-leaf stage for the postemergence treatment. Treated plants and untreated controls were maintained in a greenhouse for approximately ten days, after which time all treated plants were compared to untreated controls and visually evaluated for injury. Plant response ratings, summarized in Table A, are based on a 0 to 100 scale where 0 is no effect and 100 is complete control. A dash (-) response means no test result.

[2] = test system: velvetleaf (Abutilon theophrasti); assay: Test A pre-/postemergence plant response
Text: as §1, §2

[3] = test system: barnyardgrass (Echinochloa crus-galli); assay: Test A pre-/postemergence plant response
Text: as §1, §2

[4] = test system: large crabgrass (Digitaria sanguinalis); assay: Test A pre-/postemergence plant response
Text: as §1, §2

corn (Zea mays) = assay: Test A pre-/postemergence plant response
Text: as §1, §2

[5] = test system: wheat (Triticum aestivum); assay: Test A pre-/postemergence plant response
Text: as §1, §2

[6] = test system: giant foxtail (Setaria faberii); assay: Test A pre-/postemergence plant response
Text: as §1, §2

[7] = test system: morningglory (Ipomoea spp.); assay: Test A pre-/postemergence plant response
Text: as §1, §2

[8] = test system: ducksalad (Heteranthera limosa); assay: Test B flooded paddy test; conditions: for Plant response rating, Flood, Ducksalad: 250 g ai/ha, flooded paddy test, visual rating on 0 to 100 scale (0 no effect, 100 complete control) after 13 to 15 days; for Plant response rating, Ducksalad: Flood (flooded paddy test), 13 to 15 days; for Ducksalad plant response rating: Flood, 31 g ai/ha, scale 0 to 100 (0 no effect, 100 complete control)
Outline: (§3)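 Visual scores run from 0 (no effect) to 100 (complete control), assigned by comparison with controls 13 to 15 days after treatment. Test compounds went straight into water standing 3 cm above the soil, around plants at the 2-leaf stage kept in a greenhouse.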

rice (Oryza sativa) = assay: Test B flooded paddy test; conditions: for Plant response rating, Flood, Rice: 250 g ai/ha, flooded paddy test, visual rating on 0 to 100 scale (0 no effect, 100 complete control) after 13 to 15 days; for Plant response rating, Rice: Flood (flooded paddy test), 13 to 15 days; for Rice plant response rating: Flood, 31 g ai/ha, scale 0 to 100 (0 no effect, 100 complete control)
Outline: as §3

[9] = test system: umbrella sedge (Cyperus difformis); assay: Test B flooded paddy test; conditions: for Plant response rating, Flood, Sedge, Umbrella: 250 g ai/ha, flooded paddy test, visual rating on 0 to 100 scale (0 no effect, 100 complete control) after 13 to 15 days; for Plant response rating, Sedge, Umbrella: Flood (flooded paddy test), 13 to 15 days; for Sedge, Umbrella plant response rating: Flood, 31 g ai/ha, scale 0 to 100 (0 no effect, 100 complete control)
Outline: as §3

[10] = test system: barnyardgrass (Echinochloa crus-galli); assay: Test B flooded paddy test; conditions: for Plant response rating, Flood, Barnyardgrass: 250 g ai/ha, flooded paddy test, visual rating on 0 to 100 scale (0 no effect, 100 complete control) after 13 to 15 days; for Plant response rating, Barnyardgrass: Flood (flooded paddy test), 13 to 15 days; for Barnyardgrass plant response rating: Flood, 31 g ai/ha, scale 0 to 100 (0 no effect, 100 complete control)
Outline: as §3

[11] = Postemergence, 125 g ai/ha, 0 to 100 scale where 0 is no effect and 100 is complete control
[12] = Postemergence, 500 g ai/ha, 0 to 100 scale, 0 = no effect, 100 = complete control, approx. ten days
[13] = Preemergence, 125 g ai/ha, 0 to 100 scale, 0 = no effect, 100 = complete control
[14] = Preemergence, 500 g ai/ha, visual injury, 0 to 100 scale (0 no effect, 100 complete control), approx. ten days
[15] = 62 g ai/ha, scale of 0 to 100 where 0 is no effect and 100 is complete control
[16] = 125 g ai/ha, scale 0 to 100, 0 is no effect, 100 is complete control
[17] = Postemergence, 500 g ai/ha, visual injury, 0 to 100 scale (0 no effect, 100 complete control), approx. ten days
[18] = Preemergence, 500 g ai/ha, 0 to 100 scale, 0 = no effect, 100 = complete control

CCCc1ncc(C(=O)C2=C(O)CCCC2=O)c(=O)n1Cc1ccc(OC)c(OC)c1 [Compound 84]
10: Plant response rating, Barnyardgrass [3, 12] | Plant response rating, Crabgrass, Large [4, 12] | Plant response rating, Morningglory [7, 14]
20: Plant response rating, Corn (corn (Zea mays); [12]) | Plant response rating, Flood, Ducksalad [8]
30: Plant response rating, Sedge, Umbrella [9, 16]
90: Plant response rating, Pigweed [1, 13] | Plant response rating, Morningglory [7, 11] | Plant response rating, Morningglory [7, 12]
100: Plant response rating, Pigweed [1, 11] | Plant response rating, Pigweed [1, 12] | Plant response rating, Pigweed [1, 14] | Plant response rating, Velvetleaf [2, 12]
0: Plant response rating, Velvetleaf [2, 13] | Plant response rating, Barnyardgrass [3, 11] | Plant response rating, Barnyardgrass [3, 13] | Plant response rating, Barnyardgrass [3, 14] | Plant response rating, Crabgrass, Large [4, 11] | Plant response rating, Crabgrass, Large [4, 13] | Plant response rating, Crabgrass, Large [4, 14] | Plant response rating, Corn (corn (Zea mays); [11]) | Plant response rating, Corn (corn (Zea mays); [13]) | Plant response rating, Corn (corn (Zea mays); [14]) | Plant response rating, Wheat [5, 11] | Plant response rating, Wheat [5, 12] | Plant response rating, Wheat [5, 13] | Plant response rating, Wheat [5, 14] | Plant response rating, Foxtail, Giant [6, 11] | Plant response rating, Foxtail, Giant [6, 12] | Plant response rating, Foxtail, Giant [6, 13] | Plant response rating, Foxtail, Giant [6, 14] | Plant response rating, Morningglory [7, 13] | Plant response rating, Ducksalad [8, 15] | Plant response rating, Ducksalad [8, 16] | Ducksalad plant response rating [8] | Plant response rating, Flood, Rice (rice (Oryza sativa)) | Plant response rating, Rice (rice (Oryza sativa); [15]) | Plant response rating, Rice (rice (Oryza sativa); [16]) | Rice plant response rating (rice (Oryza sativa)) | Plant response rating, Sedge, Umbrella [9, 15] | Sedge, Umbrella plant response rating [9] | Plant response rating, Flood, Barnyardgrass [10] | Plant response rating, Barnyardgrass [10, 15] | Plant response rating, Barnyardgrass [10, 16] | Barnyardgrass plant response rating [10]
40: Plant response rating, Velvetleaf [2, 14]
70: Plant response rating, Velvetleaf [2, 11]
50: Plant response rating, Flood, Sedge, Umbrella [9]

O=C1CCCC(O)=C1C(=O)c1cnc(-c2ccco2)n(-c2ccccc2)c1=O [Compound 76]
70: Plant response rating, Velvetleaf [2, 14] | Plant response rating, Crabgrass, Large [4, 11] | Plant response rating, Foxtail, Giant [6, 12]
50: Plant response rating, Pigweed [1, 13] | Plant response rating, Barnyardgrass [3, 11] | Plant response rating, Crabgrass, Large [4, 13] | Plant response rating, Morningglory [7, 14]
30: Plant response rating, Barnyardgrass [3, 14] | Plant response rating, Foxtail, Giant [6, 14]
20: Plant response rating, Velvetleaf [2, 13] | Plant response rating, Corn (corn (Zea mays); [12]) | Plant response rating, Wheat [5, 14]
0: Plant response rating, Barnyardgrass [3, 13] | Plant response rating, Corn (corn (Zea mays); [11]) | Plant response rating, Corn (corn (Zea mays); [13]) | Plant response rating, Corn (corn (Zea mays); [14]) | Plant response rating, Wheat [5, 11] | Plant response rating, Wheat [5, 13] | Plant response rating, Foxtail, Giant [6, 13] | Plant response rating, Morningglory [7, 13] | Plant response rating, Flood, Ducksalad [8] | Plant response rating, Ducksalad [8, 15] | Plant response rating, Ducksalad [8, 16] | Ducksalad plant response rating [8] | Plant response rating, Flood, Rice (rice (Oryza sativa)) | Plant response rating, Rice (rice (Oryza sativa); [15]) | Plant response rating, Rice (rice (Oryza sativa); [16]) | Rice plant response rating (rice (Oryza sativa)) | Plant response rating, Flood, Sedge, Umbrella [9] | Plant response rating, Sedge, Umbrella [9, 15] | Plant response rating, Sedge, Umbrella [9, 16] | Sedge, Umbrella plant response rating [9] | Plant response rating, Flood, Barnyardgrass [10] | Plant response rating, Barnyardgrass [10, 15] | Plant response rating, Barnyardgrass [10, 16] | Barnyardgrass plant response rating [10]
90: Plant response rating, Pigweed [1, 11] | Plant response rating, Crabgrass, Large [4, 12] | Plant response rating, Morningglory [7, 11] | Plant response rating, Morningglory [7, 12]
10: Plant response rating, Wheat [5, 12]
40: Plant response rating, Foxtail, Giant [6, 11]
80: Plant response rating, Barnyardgrass [3, 12]
100: Plant response rating, Pigweed [1, 12] | Plant response rating, Pigweed [1, 14] | Plant response rating, Velvetleaf [2, 11] | Plant response rating, Velvetleaf [2, 12] | Plant response rating, Crabgrass, Large [4, 14]

Cc1cc(F)ccc1-n1c(-c2cccc(Br)c2)ncc(C(=O)C2=C(O)CCCC2=O)c1=O [Compound 166]
50: Sedge, Umbrella plant response rating [9]
80: Plant response rating, Barnyardgrass [3, 11]
30: Plant response rating, Corn (corn (Zea mays); [11])
20: Plant response rating, Barnyardgrass [3, 18] | Plant response rating, Foxtail, Giant [6, 18] | Plant response rating, Barnyardgrass [10, 16]
60: Plant response rating, Foxtail, Giant [6, 11] | Plant response rating, Ducksalad [8, 16]
0: Plant response rating, Pigweed [1, 13] | Plant response rating, Barnyardgrass [3, 13] | Plant response rating, Corn (corn (Zea mays); [13]) | Plant response rating, Corn (corn (Zea mays); [18]) | Plant response rating, Wheat [5, 11] | Wheat plant response rating [5, 17] | Plant response rating, Wheat [5, 13] | Plant response rating, Wheat [5, 18] | Plant response rating, Foxtail, Giant [6, 13] | Plant response rating, Morningglory [7, 13] | Plant response rating, Morningglory [7, 18] | Ducksalad plant response rating [8] | Plant response rating, Rice (rice (Oryza sativa); [16]) | Rice plant response rating (rice (Oryza sativa)) | Barnyardgrass plant response rating [10]
10: Plant response rating, Crabgrass, Large [4, 13]
100: Pigweed plant response rating [1, 17] | Plant response rating, Velvetleaf [2, 11] | Velvetleaf plant response rating [2, 17] | Plant response rating, Velvetleaf [2, 18] | Barnyardgrass plant response rating [3, 17] | Plant response rating, Morningglory [7, 11]
70: Plant response rating, Pigweed [1, 11] | Plant response rating, Crabgrass, Large [4, 18] | Plant response rating, Sedge, Umbrella [9, 16]
90: Crabgrass, Large plant response rating [4, 17] | Foxtail, Giant plant response rating [6, 17]
40: Plant response rating, Pigweed [1, 18] | Plant response rating, Velvetleaf [2, 13] | Plant response rating, Crabgrass, Large [4, 11] | Corn plant response rating (corn (Zea mays); [17])

O=C1CCCC(O)=C1C(=O)c1cnc(C2CCCCC2)n(-c2ccccc2)c1=O [Compound 106]
50: Plant response rating, Barnyardgrass [3, 12] | Plant response rating, Barnyardgrass [3, 14] | Plant response rating, Morningglory [7, 13]
90: Plant response rating, Pigweed [1, 14]
40: Plant response rating, Velvetleaf [2, 13] | Plant response rating, Crabgrass, Large [4, 11] | Plant response rating, Foxtail, Giant [6, 13]
20: Plant response rating, Foxtail, Giant [6, 11] | Plant response rating, Flood, Rice (rice (Oryza sativa)) | Plant response rating, Rice (rice (Oryza sativa); [16])
10: Plant response rating, Barnyardgrass [3, 11] | Plant response rating, Barnyardgrass [3, 13] | Plant response rating, Corn (corn (Zea mays); [12])
0: Plant response rating, Corn (corn (Zea mays); [11]) | Plant response rating, Corn (corn (Zea mays); [13]) | Plant response rating, Corn (corn (Zea mays); [14]) | Plant response rating, Wheat [5, 11] | Plant response rating, Wheat [5, 12] | Plant response rating, Wheat [5, 13] | Plant response rating, Wheat [5, 14] | Plant response rating, Flood, Ducksalad [8] | Plant response rating, Ducksalad [8, 15] | Plant response rating, Ducksalad [8, 16] | Ducksalad plant response rating [8] | Plant response rating, Rice (rice (Oryza sativa); [15]) | Rice plant response rating (rice (Oryza sativa)) | Plant response rating, Flood, Sedge, Umbrella [9] | Plant response rating, Sedge, Umbrella [9, 15] | Plant response rating, Sedge, Umbrella [9, 16] | Sedge, Umbrella plant response rating [9] | Plant response rating, Barnyardgrass [10, 15] | Plant response rating, Barnyardgrass [10, 16] | Barnyardgrass plant response rating [10]
15: Plant response rating, Flood, Barnyardgrass [10]
70: Plant response rating, Crabgrass, Large [4, 12] | Plant response rating, Crabgrass, Large [4, 13] | Plant response rating, Foxtail, Giant [6, 14]
80: Plant response rating, Pigweed [1, 11] | Plant response rating, Pigweed [1, 13] | Plant response rating, Crabgrass, Large [4, 14] | Plant response rating, Morningglory [7, 14]
100: Plant response rating, Pigweed [1, 12] | Plant response rating, Velvetleaf [2, 11] | Plant response rating, Velvetleaf [2, 12] | Plant response rating, Morningglory [7, 11] | Plant response rating, Morningglory [7, 12]
60: Plant response rating, Velvetleaf [2, 14] | Plant response rating, Foxtail, Giant [6, 12]
